Assay results reported in patent publication EP4361157A1, “FUSED TETRACYCLIC COMPOUND, PREPARATION METHOD THEREFOR AND APPLICATION THEREOF IN MEDICINE” (Jiangsu Hengrui Pharmaceuticals Co., Ltd., priority 2021, dated 2022).
pIC50: −log10 of the molar value.

How the values were obtained:
[1] = tested on: GP2d cells; assay: Inhibition of 3D proliferation of GP2d cells (CellTiter-Glo 3D); format: cell-based; settings: 120 h incubation
Experimental: GP2d cells (Nanjing Cobioer, CBP60010) were cultured in a complete medium, namely DMEM/high glucose medium (Hyclone, SH30243.01) containing 10% fetal bovine serum (Corning, 35-076-CV). On the first day of the experiment, GP2d cells were seeded into a 96-well low adsorption plate (Corning, CLS7007-24EA) with complete medium at a density of 1,000 cells/well to form 90 µL of cell suspension per well. The plate was centrifuged at 2,000 rpm for 5 min at room temperature and then incubated overnight in a cell incubator at 37 °C with 5% CO2.
The next day, 10 µL of serially-diluted test compound prepared from the complete medium was added to each well. The final concentrations of the compound of GP2d cells were 9 concentration points obtained by 3-fold serial dilution from 1 µM, and the final concentrations of the compound of AGS cells were 9 concentration points obtained by 3-fold serial dilution from 10 µM. A blank control containing 0.5% DMSO was set. The well plate was incubated in a cell incubator at 37 °C with 5% CO2 for 120 h. On the seventh day, the 96-well cell culture plate was taken out, 50 µL CellTiter-Glo® 3D reagent (Promega, G9682) was added into each well, the plate was shaken at room temperature for 25 min, pipetted and mixed well, 50 µL of the solution was transferred into a white impermeable 96-well plate (PE, 6005290), and the luminescence signal values were read using a multifunctional microplate reader (PerkinElmer, ENVISION).
Table 2. Inhibitory activity data for 3D proliferation of AGS and GP2d cells

[2] = tested on: AGS cells; assay: Inhibition of ERK phosphorylation of AGS cells (HTRF method); format: cell-based; settings: phosphorylated ERK/total ERK ratio, 1 h incubation
Experimental: AGS cells (Nanjing Cobioer, CBP60476) were cultured in RPMI1640 (Hyclone, SH30809.01) complete medium containing 10% fetal bovine serum. On the first day of the experiment, the AGS cells were seeded into a 96-well plate with complete medium at a density of 40,000 cells/well to form 190 µL of cell suspension per well. The plate was incubated overnight in a cell incubator at 37 °C with 5% CO2.
The next day, 10 µL of serially-diluted test compound prepared from the complete medium was added to each well. The final concentrations of the compound were 9 concentration points obtained by 5-fold serial dilution from 10 µM. A blank control containing 0.5% DMSO was set. The well plate was incubated in a cell incubator at 37 °C with 5% CO2 for 1 h. After completion of incubation, the 96-well cell culture plate was taken out, the medium was removed by pipetting, 200 µL PBS (Shanghai BasalMedia Technologies Co., Ltd., B320) was added to each well, and the cells were washed once. PBS was removed by pipetting, 50 µL of lysis buffer (Cisbio, 64KL1FDF) containing a blocking solution (blocking reagent, Cisbio, 64KB1AAC) was added to each well, and the well plate was lysed on a shaker for 40 min at room temperature with shaking. After lysis, the lysate was pipetted and mixed well, 16 µL of lysate was transferred to two HTRF 96-well assay plates (Cisbio, 66PL96100) per well, and then 4 µL of premixed phosphorylated ERK1/2 antibody solution (Cisbio, 64AERPEG) or 4 µL of premixed total ERK1/2 antibody solution (Cisbio, 64NRKPEG) was added to these two plates. The microplate was sealed with a sealing membrane, centrifuged for 1 min in a microplate centrifuge, and incubated overnight at room temperature in the dark. On the third day, the fluorescence values at an excitation wavelength of 337 nm and at emission wavelengths of 665 nm and 620 nm were read using an ENVISION multifunctional microplate reader (PerkinElmer, ENVISION).
Table 1. Inhibitory activity data for ERK phosphorylation of AGS cells

What does the source list for `CCc1c(F)ccc2cc(O)cc(-c3nc4c5c(nc(OCC6(CN7CC=C[C@H]7CO)CC6)nc5c3F)N3C[C@H]5CC[C@H](N5)[C@H]3CO4)c12` [Example 18, 5-Ethyl-6-fluoro-4-((5aS,6S,9R)-1-fluoro-12-((1-(((S)-2-(hydroxymethyl)-2,5-dihydro-1 H-pyrrol-1-yl)methyl)cyclopropyl)methoxy)-5a,6,7,8,9,10-hexahydro-5H-4-oxa-3,10a, 1 1,13,14-pentaaza-6,9-methanonaphtho[1,8-ab]heptalen-2-yl)naphthalen-2-ol]?
pIC50 [1]: 7.41; pIC50 ([2]; Homo sapiens, AGS): 7.98

With `CCc1c(F)ccc2cc(O)cc(-c3nc4c5c(nc(OCC6(CN7C[C@@H]8C[C@@H]8[C@H]7CO)CC6)nc5c3F)N3C[C@H]5CC[C@H](N5)[C@H]3CO4)c12` [Example 20, 5 -Ethyl-6-fluoro-4-((5aS,6S,9R)-1-fluoro-12-((1-(((1S,2S,5R)-2-(hydroxymethyl)-3-azabicyclo[3.1.0]hex-3-yl)methyl)cyclopropyl)methoxy)-5a,6,7,8,9,10-hexahydro-5H-4-oxa-3,10a,11,13,14-pentaaza-6,9-methanonaphtho[1,8-ab]heptalen-2-yl)naphthalen-2-ol] as the compound, how does the pIC50 [1] read?
The pIC50 was 8.06.

What about the pIC50 ([2]; Homo sapiens, AGS) of the same compound?
Its pIC50 is 7.85.

`CCc1c(F)ccc2cc(O)cc(-c3nc4c5c(nc(OCC6(CN7CC=C[C@@H]7CO)CC6)nc5c3F)N3C[C@H]5CC[C@H](N5)[C@H]3CO4)c12` [Example 16, 5-Ethyl-6-fluoro-4-((5aS,6S,9R)-1-fluoro-12-((1-(((R)-2-(hydroxymethyl)-2,5-dihydro-1 H-pyrrol-1-yl)methyl)cyclopropyl)methoxy)-5a,6,7,8,9,10-hexahydro-5H-4-oxa-3,10a, 1 1,13,14-pentaaza-6,9-methanonaphtho[1,8-ab]heptalen-2-yl)naphthalen-2-ol] was tested. Which pIC50 [1] did it give?
The pIC50 was 8.00.

And the pIC50 ([2]; Homo sapiens, AGS)?
Its pIC50 is 7.94.

`Oc1cc(-c2cc3nc(OC[C@@]45CCCN4C[C@H](F)C5)nc4c3c(n2)OCC2C3CCC(CN42)N3)c2c(F)cccc2c1` (single isomer, unassigned) [Diastereomeric (1:1) mixture of 1-p1 and 1-p2] was tested. Which pIC50 [2] did it give?
Its pIC50 is 7.03.

With `CCc1cccc2cc(O)cc(-c3nc4c5c(nc(OC[C@@]67CCCN6C[C@H](F)C7)nc5c3F)N3CC5CCC(N5)C3CO4)c12` (single isomer, unassigned) [Diastereomeric (1:1) mixture of 4-p1 and 4-p2] as the compound, how does the pIC50 [2] read?
Its pIC50 is 8.87.

`Oc1cc(Cl)c(C(F)(F)F)c(-c2nc3c4c(nc(OC[C@@]56CCCN5C[C@H](F)C6)nc4c2F)N2C[C@H]4CC[C@H](N4)[C@H]2CO3)c1` [Example 14-p1, 3-Chloro-5-((5aS,6S,9R)-1-fluoro-12-(((2R,7aS)-2-fluorotetrahydro-1H-pyrrolizin-7a(5 H)-yl)methoxy)-5a,6,7,8,9,10-hexahydro-5H-4-oxa-3,10a,11,13,14-pentaaza-6,9-methanonaphtho[1,8-ab]heptalen-2-yl)-4-(trifluoromethyl)phenol] was tested. Which pIC50 ([2]; Homo sapiens, AGS) did it give?
The pIC50 was 7.69.

`CCc1cccc2cc(O)cc(-c3nc4c5c(nc(OC[C@@]67CCCN6C[C@H](F)C7)nc5c3F)N3C[C@@H]5CC[C@@H](N5)[C@@H]3CO4)c12` [Example 4-p2, 5-Ethyl-4-((5aR,6R,9S)-1-fluoro-12-(((2R,7aS)-2-fluorotetrahydro-1H-pyrrolizin-7a(5H )-yl)methoxy)-5a,6,7,8,9,10-hexahydro-5H-4-oxa-3,10a,11,13,14-pentaaza-6,9-methanonaphtho[1,8-ab]heptalen-2-yl)naphthalen-2-ol] was tested. Which pIC50 ([2]; Homo sapiens, AGS) did it give?
The pIC50 was 7.06.

`CCc1c(F)ccc2cc(O)cc(-c3nc4c5c(nc(OC[C@@]67CCCN6C[C@H](F)C7)nc5c3F)N3C[C@@H]5CC[C@@H](N5)[C@@H]3CO4)c12` [Example 9-p2, 5-Ethyl-6-fluoro-4-((5aR,6R,9S)-1-fluoro-12-(((2R,7aS)-2-fluorotetrahydro-1H-pyrrolizin-7a(5H)-yl)methoxy)-5a,6,7,8,9,10-hexahydro-5H-4-oxa-3,10a,11,13,14-pentaaza-6,9-methanonaphtho[1,8-ab]heptalen-2-yl)naphthalen-2-ol] was tested. Which pIC50 ([2]; Homo sapiens, AGS) did it give?
Its pIC50 is 7.22.
